From patent publication US7972785B2, “Biomarkers for liver fibrotic injury” (Industrial Technology Research Institute (ITRI), priority 2006, dated 2011)

What was measured:
[1] = test system: rat liver transcripts; test: Affymetrix Rat Genome U34A microarray gene expression profiling of liver of DMN-treated rats; assay type: in vivo
Excerpt: Protocols and reagents for hybridization, washing and staining followed Affymetrix's instructions, which may be retrieved from Affymetrix's company website. Labeled cRNA was hybridized to the Affymetrix GeneChip Test 3 Array to verify the quality prior to hybridization to the Affymetrix Rat Genome U34A Array.
The microarray images were transformed into text files containing intensity information using GENECHIP® Operating Software (GCOS) developed by ® Affymetrix. The microarray datasets were then analyzed using GENESPRING® 7.2 software (Silicon Genetics, Redwood City, Calif., U.S.A.)
Over the six week time course of the experiment, the liver tissues of 12 control animals and 12 DMN-treated rats (2 rats for each time point) were selected to perform microarray experiments. Before any statistical analyses were applied to the microarray data, reproducibility was assessed. Genes were selected as present when they were assigned a present call according to the perfect match (PM)/mismatch (MM) algorithm of Affymetrix in all gene chips (28). Of the 8799 probe sets analyzed, overall expression patterns for 2385 transcripts on the chips were reported to be present (P<0.05). […] Scattered graphs of expression levels of the 2385 transcripts represented on the microarray were compared with each other. The relationship between the experimental chips in the microarray analysis was analyzed by linear regression. Overall, there was no statistical difference, with 3.2% of transcripts deviating more than 2-fold. To investigate the time course variability, the reliable signals of these 2385 probe sets between the first and sixth week of controls, were calculated. Again, there was no statistical difference, with 4.6% of transcripts deviating more than 2-fold. In contrast, a significant scatter was found between controls and DMN-treated groups, with 28.7% of transcripts deviating more than 2-fold. […]

[2] = test system: Tgfβ1, Timp1, Timp2, Mmp3, Ggtp mRNA in rat liver; test: Q-RT-PCR of liver mRNA in DMN-treated rats; assay type: in vivo
Procedure: To gain additional information about the established animal model, Q-RT-PCR was used to evaluate the gene expression profile of transforming growth factor-1 (Tgfβ1), which is the strongest known inducer of fibrogenesis in the effector cells of hepatic fibrosis that can stimulate the adipocyte transformation (24-27). The same total RNA samples were used for both microarray and Q-RT-PCR analyses. RNA preparation and analysis were performed according to Affymetrix's (Santa Clara, Calif., U.S.A.) instructions. The TAQMAN® assays were conducted in triplicate for each sample, and a mean value was used for calculation of expression levels. To standardize the quantification of the target genes, 18S ribosomal RNA (18S rRNA) from each sample was quantified on the same plate with the target genes. […] The changes were in agreement with observations described in Jezequel A. M. et al. (14). In sum, these examinations support the DMN-induced rat hepatic fibrosis model.
To validate the microarray data, Q-RT-PCR analysis was performed for tissue inhibitor of metalloproteinase 1 (Timp1), tissue inhibitor of metalloproteinase 2 (Timp2), matrix metalloproteinase 3 (Mmp3) and gamma-glutamyl transpeptidase (Ggtp). These genes were chosen for validation because these genes occurred both in this GeneChip study and in previous studies.
Moreover, a good concordance based on the fold changes between microarray data and Q-RT-PCR results was observed. […] TAQMAN® assays were conducted in triplicate for each sample, and a mean value was used for calculation of expression levels (marked by the square). To standardize the quantification of the Timp1 transcript, 18S rRNA from each sample was quantified on the same plate as the target gene, as indicated by the log scale on the right side of plot. The expression levels of the two Timp1 transcripts, rc_AI169327_at and rc_AI169327_g_at (marked by a circle and a triangle, respectively), were set forth relative to the mean of all gene expression levels as indicated by the scale on the left side of plot.

[3] = Q-RT-PCR, DMN-treated samples, data not shown

In the case of `CN(C)N=O` [DMN, Dimethylnitrosamine], the “transcripts deviating more than 2-fold between controls and DMN-treated groups” value ([1]; 2385 present transcripts) is reported as 28.7%, the “Timp1 expression elevation in DMN treated rats” value ([1]; microarray) is reported as “more than twenty” and the CD63 expression ([1]; microarray, after DMN treatment) is reported as “up-regulated”. The “Tgfβ1 mRNA expression in liver vs controls” value ([2]; Q-RT-PCR, DMN-treated rat livers) was “higher level of mRNA expression”, the Ggtp expression [2, 3] was “elevated” and the Mmp3 expression [2, 3] was “elevated”. The Timp2 expression [2, 3] was “elevated” and the “Timp1 expression elevation in DMN-treated rats” value ([2]; both microarray and Q-RT-PCR experiments) was “over 20 fold”.
